Results as given in patent US20140243286A1, “BROMODOMAIN LIGANDS CAPABLE OF DIMERIZING IN AN AQUEOUS SOLUTION, AND METHODS OF USING SAME” (Coferon, Inc., priority 2011, published 2014).
Like-named read-outs stand apart in the source and are kept apart here.

Tests used:
bromodomain = assay: TR-FRET assay; type: binding; details: BRD-S monomers; based on monomer concentration; read-out: IC50 range (based on monomer concentration), Group (FRET assay)
Method: TR-FRET assays were performed as described in Chung et al, J. Med Chem., 2011 54(11): 3827-38 except that FRET was measured on a Spectramax M5 plate reader.

BRD2 = BRD2 (Homo sapiens, UniProt P25440); assay: Fluorescence anisotropy (FA) binding assay, BRD2
Method: (§1) Fluorescence Anisotropy (FA) Binding Assays.
(§2) FA assays were performed as described in Chung et al., J. Med Chem., 2011 54(11): 3827-38 except that protein concentrations were 125 nM and plates were read on a Spectramax M5 plate reader.

BRD4 = BRD4 (Homo sapiens, UniProt O60885); assay: Fluorescence anisotropy (FA) binding assay, BRD4
Method: as §1, §2

BRD3 = BRD3 (Homo sapiens, UniProt Q15059); assay: Fluorescence anisotropy (FA) binding assay, BRD3
Method: as §1, §2

[1] = BRD2, protein 125 nM, read-out: IC50 range (FA assay) BRD2, BRD-N monomers
[2] = BRD4, protein 125 nM, read-out: IC50 range (FA assay) BRD4, BRD-N monomers
[3] = BRD3, protein 125 nM, read-out: IC50 range (FA assay) BRD3, BRD-N monomers
[4] = BRD2, protein 125 nM, read-out: IC50 range (FA assay) BRD2, BRD-E monomers
[5] = BRD4, protein 125 nM, read-out: IC50 range (FA assay) BRD4, BRD-E monomers
[6] = BRD3, protein 125 nM, read-out: IC50 range (FA assay) BRD3, BRD-E monomers

Sequence of BRD3 (Q15059 whole entry): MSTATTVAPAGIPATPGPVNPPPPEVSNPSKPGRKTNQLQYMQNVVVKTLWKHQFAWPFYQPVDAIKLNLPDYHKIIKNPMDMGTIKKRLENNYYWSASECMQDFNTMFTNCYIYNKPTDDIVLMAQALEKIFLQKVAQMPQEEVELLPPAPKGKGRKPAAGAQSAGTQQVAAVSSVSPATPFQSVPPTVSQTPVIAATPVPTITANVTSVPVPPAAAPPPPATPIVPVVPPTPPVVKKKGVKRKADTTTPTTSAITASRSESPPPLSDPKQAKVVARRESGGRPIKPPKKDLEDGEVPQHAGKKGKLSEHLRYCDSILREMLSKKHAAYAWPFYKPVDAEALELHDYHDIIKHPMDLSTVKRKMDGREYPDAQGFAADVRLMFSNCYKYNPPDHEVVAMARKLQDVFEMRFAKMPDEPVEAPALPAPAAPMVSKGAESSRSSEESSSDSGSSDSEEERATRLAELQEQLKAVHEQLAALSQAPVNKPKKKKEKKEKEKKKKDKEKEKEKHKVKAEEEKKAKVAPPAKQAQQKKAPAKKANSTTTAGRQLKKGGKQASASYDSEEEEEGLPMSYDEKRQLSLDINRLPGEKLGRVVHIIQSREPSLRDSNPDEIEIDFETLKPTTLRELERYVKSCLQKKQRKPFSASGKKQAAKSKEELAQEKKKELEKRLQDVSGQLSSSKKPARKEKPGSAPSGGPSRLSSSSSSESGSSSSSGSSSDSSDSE
Sequence of BRD2 (P25440 whole entry): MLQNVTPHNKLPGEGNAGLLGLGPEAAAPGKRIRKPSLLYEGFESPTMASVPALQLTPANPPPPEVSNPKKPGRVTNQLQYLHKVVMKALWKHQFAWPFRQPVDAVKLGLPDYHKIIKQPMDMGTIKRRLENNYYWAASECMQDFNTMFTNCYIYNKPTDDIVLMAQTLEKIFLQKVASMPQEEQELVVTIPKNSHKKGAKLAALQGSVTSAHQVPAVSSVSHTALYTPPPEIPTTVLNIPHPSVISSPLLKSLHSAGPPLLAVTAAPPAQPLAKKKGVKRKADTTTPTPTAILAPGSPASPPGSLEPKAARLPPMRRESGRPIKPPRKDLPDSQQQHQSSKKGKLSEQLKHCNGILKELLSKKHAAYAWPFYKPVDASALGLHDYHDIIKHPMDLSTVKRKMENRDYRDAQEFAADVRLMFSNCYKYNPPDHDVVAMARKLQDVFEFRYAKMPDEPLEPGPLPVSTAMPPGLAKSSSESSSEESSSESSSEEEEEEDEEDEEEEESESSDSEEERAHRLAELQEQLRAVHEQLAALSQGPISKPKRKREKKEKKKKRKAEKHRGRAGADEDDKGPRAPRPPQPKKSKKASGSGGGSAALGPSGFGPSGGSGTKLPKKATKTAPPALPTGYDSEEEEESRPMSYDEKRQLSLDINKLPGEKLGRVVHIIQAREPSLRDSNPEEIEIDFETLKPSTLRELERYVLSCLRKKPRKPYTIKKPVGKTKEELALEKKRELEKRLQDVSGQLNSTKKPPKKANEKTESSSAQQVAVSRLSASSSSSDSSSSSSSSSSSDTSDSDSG

| SMILES | IC50 (BRD2; [1]) [nM] | IC50 (BRD4; [2]) [nM] | IC50 (BRD3; [3]) [nM] | IC50 (BRD2; [4]) [nM] | IC50 (BRD4; [5]) [nM] | IC50 (BRD3; [6]) [nM] | further results |
| --- | --- | --- | --- | --- | --- | --- | --- |
| COc1ccc2c(c1)C(c1ccc(Cl)cc1)=N[C@@H](CC(=O)NCCOc1cccc([Si](C)(C)O)c1)c1nnc(C)n1-2 [BRD-S-10, (S)-2-(6-(4-chlorophenyl)-8-methoxy-1-methyl-4H-benzo[f][1,2,4]triazolo[4,3-a][1,4]diazepin-4-yl)-N-(2-(3-(hydroxydimethylsilyl)phenoxy)ethyl)acetamide] | – | – | – | – | – | – | IC50 (bromodomain): 100 to 300 nM |
| CCNC(=O)C[C@@H]1N=C(c2ccc(Cl)cc2)c2cc(OCC(=O)Nc3cccc(O)c3O)ccc2-n2c(C)nnc21 [BRD-N-17, (S)-2-((6-(4-chlorophenyl)-4-(2-(ethylamino)-2-oxoethyl)-1-methyl-4H-benzo[f][1,2,4]triazolo[4,3-a][1,4]diazepin-8-yl)oxy)-N-(2,3-dihydroxyphenyl)acetamide] | 50 to 1000 | 50 to 1000 | 1000 to 30000 | – | – | – | – |
| COc1ccc2c(c1)C(c1ccc(Cl)cc1)=N[C@@H](CC(=O)NCCCNC(=O)c1ccc(B(O)O)cc1)c1nnc(C)n1-2 [BRD-E-03, (4-((3-(2-((4S)-6-(4-chlorophenyl)-8-methoxy-1-methyl-4H-benzo[f][1,2,4]triazolo[4,3-a][1,4]diazepin-4-yl)acetamido)propyl)carbamoyl)phenyl)-boronic acid] | – | – | – | 50 to 1000 | 50 to 1000 | 50 to 1000 | – |
| CCNC(=O)C[C@@H]1N=C(c2ccc(Cl)cc2)c2cc(OCCCCNC(=O)c3cccc(O)c3O)ccc2-n2c(C)nnc21 [BRD-N-29, (S)—N-(4-((6-(4-chlorophenyl)-4-(2-(ethylamino)-2-oxoethyl)-1-methyl-4H-benzo[f][1,2,4]triazolo[4,3-a][1,4]diazepin-8-yl)oxy)butyl)-2,3-dihydroxybenzamide] | 50 to 1000 | 1000 to 30000 | 1000 to 30000 | – | – | – | – |
| CCNC(=O)C[C@@H]1N=C(c2ccc(Cl)cc2)c2cc(OCCCCNC(=O)c3ccc(B(O)O)cc3)ccc2-n2c(C)nnc21 [BRD-E-26, (S)-(4-((4-((6-(4-chlorophenyl)-4-(2-(ethylamino)-2-oxoethyl)-1-methyl-4H-benzo[f][1,2,4]triazolo[4,3-a][1,4]diazepin-8-yl)oxy)butyl)carbamoyl)phenyl)boronic acid] | – | – | – | 50 to 1000 | 50 to 1000 | 50 to 1000 | – |
| CCNC(=O)C[C@@H]1N=C(c2ccc(Cl)cc2)c2cc(OCCNC(=O)c3cccc(O)c3O)ccc2-n2c(C)nnc21 [BRD-N-25, (S)—N-(2-((6-(4-chlorophenyl)-4-(2-(ethylamino)-2-oxoethyl)-1-methyl-4H-benzo[f][1,2,4]triazolo[4,3-a][1,4]diazepin-8-yl)oxy)ethyl)-2,3-dihydroxybenzamide] | 1000 to 30000 | 50 to 1000 | 50 to 1000 | – | – | – | – |
| CCNC(=O)C[C@@H]1N=C(c2ccc(Cl)cc2)c2cc(OCCCNC(=O)c3ccc(B(O)O)cc3)ccc2-n2c(C)nnc21 [BRD-E-24, (S)-(4-((3-((6-(4-chlorophenyl)-4-(2-(ethylamino)-2-oxoethyl)-1-methyl-4H-benzo[f][1,2,4]triazolo[4,3-a][1,4]diazepin-8-yl)oxy)propyl)carbamoyl)phenyl)-boronic acid] | – | – | – | 1000 to 30000 | 50 to 1000 | 50 to 1000 | – |
| COc1ccc2c(c1)C(c1ccc(Cl)cc1)=N[C@@H](CC(=O)NCc1cccc(O)c1O)c1nnc(C)n1-2 [BRD-N-11, (S)-2-(6-(4-chlorophenyl)-8-methoxy-1-methyl-4H-benzo[f][1,2,4]triazolo[4,3-a][1,4]diazepin-4-yl)-N-(2,3-dihydroxybenzyl)acetamide] | 50 to 1000 | 50 to 1000 | 50 to 1000 | – | – | – | – |
| CCNC(=O)C[C@@H]1N=C(c2ccc(Cl)cc2)c2cc(OCCCCC(=O)Nc3ccc(O)c(O)c3)ccc2-n2c(C)nnc21 [BRD-N-22, (S)-5-((6-(4-chlorophenyl)-4-(2-(ethylamino)-2-oxoethyl)-1-methyl-4H-benzo[f][1,2,4]triazolo[4,3-a][1,4]diazepin-8-yl)oxy)-N-(3,4-dihydroxyphenyl)pentanamide] | 50 to 1000 | 50 to 1000 | 50 to 1000 | – | – | – | – |
| COc1ccc2c(c1)C(c1ccc(Cl)cc1)=N[C@@H](CC(=O)NCCCCCNC(=O)c1ccc(B(O)O)cc1)c1nnc(C)n1-2 [BRD-E-07, (4-((5-(2-((4S)-6-(4-chlorophenyl)-8-methoxy-1-methyl-4H-benzo[f][1,2,4]triazolo[4,3-a][1,4]diazepin-4-yl)acetamido)pentyl)carbamoyl)phenyl)-boronic acid] | – | – | – | – | – | – | IC50 (BRD2): 50 to 1000 nM; IC50 (BRD4): 50 to 1000 nM; IC50 (BRD3): 50 to 1000 nM |
| CCNC(=O)C[C@@H]1N=C(c2ccc(Cl)cc2)c2cc(OCCCCC(=O)Nc3cccc(B(O)O)c3)ccc2-n2c(C)nnc21 [BRD-E-20, (S)-(3-(5-((6-(4-chlorophenyl)-4-(2-(ethylamino)-2-oxoethyl)-1-methyl-4H-benzo[f][1,2,4]triazolo[4,3-a][1,4]diazepin-8-yl)oxy)pentanamido)phenyl)boronic acid] | – | – | – | 50 to 1000 | 50 to 1000 | 50 to 1000 | – |
| COc1ccc2c(c1)C(c1ccc(Cl)cc1)=N[C@@H](CC(=O)NCCNC(=O)c1ccc(B(O)O)cc1)c1nnc(C)n1-2 [BRD-E-01, (4-((2-(2-((4S)-6-(4-chlorophenyl)-8-methoxy-1-methyl-4H-benzo[f][1,2,4]triazolo[4,3-a][1,4]diazepin-4-yl)acetamido)ethyl)carbamoyl)phenyl)boronic acid] | – | – | – | – | – | – | IC50 (BRD2): 50 to 1000 nM; IC50 (BRD4): 50 to 1000 nM; IC50 (BRD3): 50 to 1000 nM |
| CCNC(=O)C[C@@H]1N=C(c2ccc(Cl)cc2)c2cc(O)ccc2-n2c(C)nnc21 | – | – | – | – | – | – | melting point: 180 to 182 °C |
| COc1ccc2c(c1)C(c1ccc(Cl)cc1)=N[C@@H](CC(=O)NCCCCNC(=O)c1ccc(O)c(O)c1)c1nnc(C)n1-2 [BRD-N-05, N-(4-(2-((4S)-6-(4-chlorophenyl)-8-methoxy-1-methyl-4H-benzo[f][1,2,4]triazolo[4,3-a][1,4]diazepin-4-yl)acetamido)butyl)-3,4-dihydroxybenzamide] | – | – | – | – | – | – | IC50 (BRD2): 50 to 1000 nM; IC50 (BRD4): 50 to 1000 nM; IC50 (BRD3): 50 to 1000 nM |
| COc1ccc2c(c1)C(c1ccc(Cl)cc1)=N[C@@H](CC(=O)NCCc1cccc(B(O)O)c1)c1nnc(C)n1-2 [BRD-E-14, (S)-(3-(2-(2-(6-(4-chlorophenyl)-8-methoxy-1-methyl-4H-benzo[f][1,2,4]triazolo[4,3-a][1,4]diazepin-4-yl)acetamido)ethyl)phenyl)boronic acid] | – | – | – | 50 to 1000 | 50 to 1000 | 50 to 1000 | – |
